For the experiment, the target named is human GLP1R (hGLP1R) (Homo sapiens, UniProt P43220). The experiment in a line: Human GLP1R β-arrestin recruitment assay (PathHunter). To be noted: CHO-hGLP1R-β-arrestin cells; for EC50: mean n=2, read-out: Beta-Arrestin assay EC50 Mean; for Emax: relative to GLP1(7-36), read-out: Beta-Arrestin assay Emax. More on the design: insert synthesized by GeneArt 93-0164 (cells); 93-0491 (vector bundle). The experiment is classed as cell-based. The procedure: Compounds 1 to 31 were tested in the following cellular assays that measure the intracellular cAMP concentration, beta-arrestin recruitment and receptor internalization. The cAMP is generated by the activation of GLP1R. The cAMP data obtained is shown in Table 1 (where S.E.M. is included, mean n=3 independent experiments+/−S.E.M). Beta-arrestin is recruited upon activation of GLP1R and the data obtained are shown in Table 2 (mean n=2 independent experiments, +/−S.D). The extent to which the GLP1R is internalized into the cell and away from the plasma membrane following activation is also shown in Table 2 (mean n=2 independent experiments, +/−S.D). EC50 for each assay is defined as the concentration of the compound that leads to half of the maximum response (after baseline correction). Emax is defined as the maximum response observed for the test compound, normalized to the maximum response observed for the endogenous ligand (GLP1(7-36)) to GLP1R.
human GLP1R (hGLP1R), sequence (P43220 24-463): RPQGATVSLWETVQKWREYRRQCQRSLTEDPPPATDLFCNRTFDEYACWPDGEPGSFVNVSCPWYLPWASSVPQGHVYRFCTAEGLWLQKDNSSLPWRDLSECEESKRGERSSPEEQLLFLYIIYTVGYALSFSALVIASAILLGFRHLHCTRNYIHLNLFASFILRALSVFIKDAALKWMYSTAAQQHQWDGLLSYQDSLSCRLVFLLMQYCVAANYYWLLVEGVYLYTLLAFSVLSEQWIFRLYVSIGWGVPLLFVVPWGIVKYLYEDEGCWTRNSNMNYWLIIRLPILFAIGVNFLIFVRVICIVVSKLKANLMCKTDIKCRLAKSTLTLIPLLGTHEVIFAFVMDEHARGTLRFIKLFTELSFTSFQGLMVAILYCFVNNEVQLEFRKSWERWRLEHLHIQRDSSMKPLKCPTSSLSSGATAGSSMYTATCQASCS
The extent to which agonists recruited β-arrestin was measured using the PathHunter® β-arrestin assay (DiscoverX). This assay measures binding of β-arrestin to the receptor using an enzyme complementation approach. […] When β-arrestin is recruited to the receptor the enzyme becomes active and generates luminescence in the presence of a chemiluminescent substrate (PathHunter® Detection Kit, DiscoverX cat #93-0001). Luminescence can be measured on a relevant detector. CHO-hGLP1R-β-arrestin cells stably overexpressing hGLP1R with Prolink tag and β-arrestin with EA tag were seeded at 20 μL per well in white 384-well poly-D-Lysine coated plates (Greiner Bio One, cat #781945) in Plating Reagent 2 (DiscoverX, cat #93-0563R2A), and incubated overnight at 37° C., 5% CO2 with humidity. The following day, agonists were prepared at 5 times the final required concentration. To generate triplicate dose response curves, compounds were serially diluted 3-fold in assay buffer (HBSS, 10 mM Hepes and 0.1% BSA), then added to the cell assay plate to a final volume of 25 μL and final top concentrations starting at 30 μM. In the same plate and assay buffer as the tested compounds, were EC100 control wells containing GLP1 (7-36) peptide (Bachem, cat #H-6795) at a final concentration of 1 μM and also EC0 control wells containing no compound. The plate was incubated at 37° C., 5% CO2 with humidity for 2 h after adding the compounds to the cells. Then the detection reagent was prepared (19 parts cell assay buffer, 5 parts substrate reagent 1 and 1 part substrate reagent 2 as per manufacturers recommendations, DiscoverX cat #93-0001), and 12 μL were added per well to the cell assay plate. The plate was incubated for an additional hour in the dark at RT. Luminescence was then measured with an Envision 2104 Multilabel reader with “TRF Light Unit, 337 nm” (Perkin Elmer) using the Ultra-Sensitive protocol setting “384-well US luminescence detector” with the 384-well luminescence aperture, 0.1 sec per well. β-arrestin recruitment was calculated and expressed as percent of the GLP1 (7-36) EC100 control wells: [(sample signal−mean EC0 signal)/(mean EC100 of GLP1 (7-36) signal−mean EC0 signal)]*100 using Microsoft Excel. Curve fitting for EC50 determinations was performed using GraphPad Prism. The 4-parameter logistic model, Hill slope was used: Y=Bottom+(Top−Bottom)/(1+10^((Log EC50−X)*Hill Slope)), where Y is the functional response; X is the compound concentration; bottom is A0 or the minimum value (at 0 dose); top is Ainf or the maximum value (at infinite dose); EC50 is the point of inflection (i.e. the point on the sigmoid shaped curve halfway between A0 and Ainf). The EC50 value was calculated in μM. Emax is the maximal activity detected within the concentration range, derived from the fitted curve relative to GLP1(7-36). […]
Background: Activated receptors often draw arrestin, which recruitment assays turn into a signal.

Each structure is given as a SMILES string.

One may read the EC50 as the concentration giving half of the maximal effect. One may read the Emax as the greatest response seen or fitted, relative to the assay's reference. Regarding `C[C@]1(c2ccc(Cl)cc2F)Oc2cccc(C3CCN(Cc4ncc(/C=C/C(=O)O)n4C[C@@H]4CCO4)CC3)c2O1` [Compound C-1, (E)-3-(2-((4-((S)-2-(4-chloro-2-fluorophenyl)-2-methylbenzo[d][1,3]dioxol-4-yl)piperidin-1-yl)methyl)-1-(((S)-oxetan-2-yl)methyl)-1H-imidazol-5-yl)acrylic acid], the EC50 came to 494 nM and the Emax is 9%.

On to `Cc1nc(CN2CCC(c3cccc4c3O[C@@](C)(c3ccc(Cl)cc3F)O4)CC2)n(C[C@@H]2CCO2)c1/C=C/C(=O)O` [Compound C-5, (E)-3-(2-((4-((S)-2-(4-chloro-2-fluorophenyl)-2-methylbenzo[d][1,3]dioxol-4-yl)piperidin-1-yl)methyl)-4-methyl-1-(((S)-oxetan-2-yl)methyl)-1H-imidazol-5-yl)acrylic acid], for which the EC50 came to 404 nM and the Emax stood at 12%.

Regarding `C[C@]1(c2ccc(Cl)cc2F)Oc2cccc(C3CCN(Cc4nc(C(F)(F)F)c(C(=O)O)n4C[C@@H]4CCO4)CC3)c2O1` [Compound C-7, 2-((4-((S)-2-(4-chloro-2-fluorophenyl)-2-methylbenzo[d][1,3]dioxol-4-yl)piperidin-1-yl)methyl)-1-(((S)-oxetan-2-yl)methyl)-4-(trifluoromethyl)-1H-imidazole-5-carboxylic acid], the EC50 is above 30000 nM and the Emax was found to be 2%.

Regarding `C[C@]1(c2ccc(Cl)cc2F)Oc2cccc(C3CCN(Cc4nc(/C=C/C(=O)O)cn4C[C@@H]4CCO4)CC3)c2O1` [Compound C-2, (E)-3-(2-((4-((S)-2-(4-chloro-2-fluorophenyl)-2-methylbenzo[d][1,3]dioxol-4-yl)piperidin-1-yl)methyl)-1-(((S)-oxetan-2-yl)methyl)-1H-imidazol-4-yl)acrylic acid], the half-maximal effective concentration (EC50) is above 30000 nM and the Emax is 0%.
